Results reported in patent publication US10226462B2, “Detection and treatment of excessive hair shedding” (Samson Clinical Pty Ltd, priority 2014, dated 2019).

How the values were obtained:
[1] = test system: telogen effluvium; details: treatments commonly used for AGA; cited from earlier work
[2] = test system: Monilethrix; assay: Oral minoxidil in two cases of monilethrix
Protocol: Patient 6: A person presented with lifelong fragile, sparse, and thin hair. […] Comorbidities included Crohn's disease and impaired hearing. Their child and two sons had also been diagnosed with monilethrix and suffered from sparse and fragile hair. […] As the application of topical minoxidil could potentially accentuate breakage of fragile hairs, treatment was commenced with oral minoxidil 0.25 mg daily.
Patient 7: A person with fragile, thin and sparse hair since childhood secondary to monilethrix presented for assessment and treatment. […] As the application of topical minoxidil could potentially accentuate breakage of fragile hairs oral Minoxidil 0.25 mg daily was commenced.

[3] = test system: chronic telogen effluvium; assay: Once daily oral minoxidil in women with chronic telogen effluvium (CTE), hair shedding score and safety; details: for Mean HSS: 36 women, oral 0.5-2.5 mg daily, baseline 5.63; for Reduction in mean HSS: p<0.001
Protocol: The goals of this study were to review the use of oral minoxidil in CTE with respect to the response to hair shedding and safety. Hair shedding was assessed by patient self-reported Hair shedding Scores (HSS) using the visual analogue scale as described in Example 1 and FIG. 1. Hair Shedding Scores (HSS) were on the scale of 1 to 6 (6 being the highest level of hair shedding). Patients included in this study were women with a diagnosis of CTE based on >6 month history of increased telogen hair shedding, a HSS of 4-6, no visible mid frontal scalp hair loss (Sinclair stage 1) and no hair follicle miniaturization on scalp biopsy.
Data pertaining to dosage of oral minoxidil, previous treatments including topical minoxidil use, blood pressure, side effects, hypertrichosis and trichodynia were collected for each patient. Patient-reported responses were based on a visual analogue scale HSS at each consultation. The HSS prior to starting oral minoxidil, and scores at 6 and 12 months were extracted for analysis. Patients were treated with a once daily oral minoxidil (0.5 to 2.5 mg).
Data were analysed using Matlab R2014b statistical software. Hair shedding scores at baseline, 6 and 12 months were analysed using the Wilcoxon rank sum test for pair-wise comparisons. Differences in blood pressure at baseline and 6 months were also analysed using Wilcoxon rank sum test. Relationship between outcomes (HSS at six and 12 months) and individual patient specific variables including previous use of […], duration of disease, dosage and HSS at baseline were analysed using a generalised linear regression model.

[4] = test system: androgenetic alopecia (male pattern hair loss); assay: Pilot open study of oral minoxidil 0.25 mg once daily for 24 weeks in men with AGA; type: in vivo, human; details: 0.25 mg daily
Protocol: This study was a pilot, prospective, open, observational study conducted at the Sinclair Dermatology Clinic in Melbourne, Australia. Participants were dosed for 24 weeks. Treatment naïve men with Hamilton Norwood staged III vertex, IV or V were treated for 24 weeks with minoxidil 0.25 mg once daily. The primary efficacy endpoint was investigators' photographic assessment at week 24 and adverse events. Investigator photographic assessment was conducted by a single investigator grading the photographs using a 3 point rating scale, ranging from “decreased hair growth” to “increased hair growth,” centred at no change. Any reports of adverse events were collected at every visit.

[5] = test system: bitemporal hair loss in female pattern hair loss; assay: Oral minoxidil 0.25 mg daily in women with bitemporal recession in female pattern hair loss; type: in vivo, human; details: for Hair shedding (HSS stage): baseline stage 6

In the case of CC(C)(C)NC(=O)[C@H]1CC[C@H]2[C@@H]3CC[C@H]4NC(=O)C=C[C@]4(C)[C@H]3CC[C@]12C [finasteride], the “Efficacy in TE” value [1] is listed as “do not work”.
In the case of CC(=O)O[C@]1(C(C)=O)CC[C@H]2[C@@H]3C=C(Cl)C4=CC(=O)[C@@H]5C[C@@H]5[C@]4(C)[C@H]3CC[C@@]21C [cyproterone acetate], the “Efficacy in TE” value [1] is listed as “do not work”.
For Nc1cc(N2CCCCC2)nc(N)[n+]1[O-] [minoxidil], the Side effects ([2]; Patient 6, oral 0.25 mg daily) was “did not experience any side effects or complication”, the Tolerability ([2]; low doses, oral) was “well tolerated” and the “Patients in whom the HSS improved” value ([3]; after 6 months, of 36) was 31. For the same molecule, the “Patients in whom the HSS remained the same” value ([3]; after 6 months, of 36) was 4, the “Mean HSS” value ([3]; at 6 months) was 3.9 and the “Mean HSS” value ([3]; at 12 months) was 3.05. For the same molecule, the “Patients in whom the HSS increased” value ([3]; at the 6-month mark, of 36) was 1, the “Patients improved from baseline” value ([3]; at the 12 month mark, of 36) was 33 and the “Reduction in mean HSS” value ([3]; baseline to 6 months) was 1.7. The “Reduction in mean HSS” value ([3]; baseline to 12 months) was 2.58, the “Mean reduction in HSS” value ([3]; between 6 months and 12 months, p=0.003) was 0.89 and the “Lowest blood pressure recorded” value ([3]; in vivo) was 90/70. The “Mean change in blood pressure, diastolic” value ([3]; in vivo) was “plus 2.1 mmHg”, the “Mean change in blood pressure, systolic” value ([3]; in vivo) was “minus 0.5 mmHg” and the “Mean dose in patient group with hypertrichosis (Yes)” value ([3]; in vivo) was 1.46 mg. For the same molecule, the “Mean dose in patient group with trichodynia (Yes)” value ([3]; in vivo) was 1.19 mg, the “Mean dose in patient group without hypertrichosis (No)” value ([3]; in vivo) was 0.99 mg and the “Mean dose in patient group without trichodynia (No)” value ([3]; in vivo) was 1.11 mg. The “Patients who developed ankle oedema” value ([3]; of 36) was “One”, the “Patients who developed any blood test abnormalities” value ([3]; of 36) was “No patients” and the “Women who developed facial hypertrichosis” value ([3]; of 36) was “Thirteen”. The “Patients who developed transient postural dizziness” value ([3]; of 36, resolved with continued treatment) was “Two”, the “Difference between blood pressure at baseline and 6 months” value ([3]; p>0.05) was “no significant differences” and the “Mean reduction in HSS” value ([3]; patients who had not used topical minoxidil, at 12 months) was 2.32. The “Mean reduction in HSS” value ([3]; patients who had not used topical minoxidil, at six months) was 1.56, the “Mean reduction in HSS” value ([3]; patients who had previously used topical minoxidil, at 12 months) was 3.18 and the “Mean reduction in HSS” value ([3]; patients who had previously used topical minoxidil, at six months) was 2. For the same molecule, the Tolerability ([4]; patients with MPHL) was “well tolerated”, the Adverse events ([4]; six men, 24 weeks) was “No adverse events” and the Side-effects ([5]; Patient 8) was “no side-effects”. The “Hair shedding (HSS stage)” value ([5]; Patient 8, 0.25 mg, review at 3 months) was 5, the Blood pressure ([5]; Patient 8, review at 3 months, baseline 110/70) was 115/65 and the Facial hypertrichosis ([5]; Patient 8, review at 3 months, present at baseline) was “unaltered”. For the same molecule, the “Side effects or complications of treatment” value ([5]; Patient 9) was “not experienced any side effects or complications”, the “Hair shedding (HSS stage)” value ([5]; Patient 9, 0.25 mg once daily with continued spironolactone 100 mg daily, review at 6 weeks) was 4 and the Blood pressure ([5]; Patient 9, review at 6 weeks, baseline 140/85) was 125/85.
For CC(=O)S[C@@H]1CC2=CC(=O)CC[C@]2(C)[C@H]2CC[C@@]3(C)[C@@H](CC[C@@]34CCC(=O)O4)[C@H]12 [spironolactone], the “Efficacy in TE” value [1] is listed as “do not work”.
